{"source": "patent US11446282B2", "about": "“Methods of treating mixed dyslipidemia and hypertriglycertdemia” (Kowa Company, Ltd., priority 2017, dated 2022)", "key": {"[1]": {"experiment": "Urinary excretion in nonclinical and clinical studies", "assay_type": "in vivo"}, "[2]": {"experiment": "Study K-877-12, pharmacokinetics in patients with renal impairment", "assay_type": "in vivo, human", "conditions": "Japanese patients with renal impairment, even severe"}, "[3]": {"system": "dyslipidemic patients with renal impairment", "experiment": "Example 3 phase III 52-week trial: adverse events and adverse drug reactions", "assay_type": "in vivo, human", "description": "This was a multicenter, single-arm, open-label, phase III trial. The inclusion criteria were as follows: (1) patients with dyslipidemia aged >20 years at the time of informed consent; (2) men and postmenopausal women; (3) fasting serum TG≥1.70 mmol/L (150 mg/dL) at two consecutive measurements during screening; and (4) patients who followed dietary and physical exercise guidance for >12 weeks before enrollment.\nDuring the screening period (8 weeks prior to treatment initiation), tests were performed twice to determine patient eligibility. Thereafter, eligible patients orally received pemafibrate 0.2 mg/day (twice daily) for 52 weeks. From week 12 of the treatment period onwards, the investigators were instructed that the dose could be increased from 0.2 mg/day to 0.4 mg/day (twice daily) if there was an inadequate response to the initial dose based on fasting serum TG levels ≥1.70 mmol/L (150 mg/dL). Fasting blood and urine samples were collected at each visit. Blood and urine sample in patients with hemodialysis were collected just before dialysis. LDL-C levels were measured using the direct method. Lipoprotein fractions were measured by HPLC at baseline and weeks 12 and 40.\nThe primary efficacy endpoint was the percent change in fasting serum TG from baseline to the last evaluation point. The primary safety endpoints were the incidence of an AE or ADR occurring after drug administration during the study. Secondary efficacy endpoints included percent changes in lipid variables and changes in inflammation variables at week 52 [using the last-observation-carried-forward (LOCF)]. Secondary safety endpoints included changes in the levels of aspartate aminotransferase (AST), ALT, -GT, ALP, serum creatinine, eGFR, and CK at week 52. […]\nThe numbers of patients with AEs and ADRs and the incidences of AEs and ADRs were calculated in the analysis of primary safety endpoints. […] The secondary safety endpoints were analyzed with Wilcoxon signed-rank tests. […] Where indicated, the data are expressed as means±standard deviation (SD)."}, "[4]": {"system": "dyslipidemic patients with statin", "experiment": "Example 4 pooled analysis: lipoprotein subclasses by HPLC, with statin, by eGFR", "assay_type": "in vivo, human", "conditions": "for Small HDL-C % Change from baseline to week 12 / Small LDL-C % Change from baseline to week 12 / Very small HDL-C % Change from baseline to week 12 / Very small LDL-C % Change from baseline to week 12: LS mean", "description": "The present study analyzed data combined from 6 randomized double-blind placebo-controlled studies that were conducted in Japan and continued for 12 weeks unless otherwise noted: a phase 2 study in 224 patients with a history of documented dyslipidemia and plasma TG of 200 mg/dL (2.26 mmol/L) or higher, randomized to placebo, pemafibrate 0.05, 0.1, 0.2, 0.4 mg/day, or fenofibrate 100 mg/day; a phase 3 study in 526 patients with dyslipidemia, high TG levels, and low HDL-C levels, randomized to placebo, pemafibrate 0.1, 0.2, or 0.4 mg/day, or fenofibrate 100 or 200 mg/day; a study in 188 patients with dyslipidemia, randomized to pitavastatin in combination with pemafibrate 0.1, 0.2, or 0.4 mg/day; a 24-week study in 423 patients with dyslipidemia, randomized to pemafibrate 0.2 mg/day (fixed dose) or 0.2 [0.4] mg/day (conditional up-titration) with any statin; a 24-week phase 3 study in 166 patients with type 2 diabetes and hypertriglyceridemia, randomized to placebo or pemafibrate 0.2 or 0.4 mg/day; and a study in 27 patients with hypertriglyceridemia and insulin resistance, randomized to pemafibrate 0.4 mg/day or placebo. All studies were approved by the Institutional Review Board for each study institution and were conducted in accordance with the Declaration of Helsinki and under the guidelines of Good Clinical Practice.\nIn this study, we evaluated the efficacy and safety of pemafibrate at doses of 0.1 mg/day, 0.2 mg/day, and 0.4 mg/day, with and without statin. The primary efficacy endpoint was percent change in TG from baseline to 12 weeks. The secondary efficacy endpoints were also assessed from baseline to 12 weeks: percent change in HDL-C, LDL-C, non-HDL-C, TC, RemL-C, Apo AI, Apo AII, Apo B, Apo B48, Apo CII, Apo CIII, Apo CIII/Apo CII, and Apo E; percent change in HPLC findings for CM-C, VLDL-C, cholesterol content in 4 subclasses of LDL (large, medium, small, and very small LDLs), and cholesterol content for 5 subclasses of HDL (very large, large, medium, small, and very small HDLs); and changes in fibrinogen and FGF21. The primary safety endpoints were the incidence of adverse events and adverse drug reactions. Secondary safety endpoints were percentage of values above the upper limit of normal range for AST, ALT, sCr and CK, and change in sCr eGFR, CK, AST, ALT, gamma-glutamyl transferase (γ-GT), alkaline phosphatase (ALP), and total bilirubin.\nPatients with renal dysfunction were defined as those with baseline eGFR<60 mL/min/1.73 m^2. Analysis was stratified by the presence or absence of renal dysfunction in the concomitant statin group, and efficacy and safety of pemafibrate were evaluated. In efficacy and safety evaluations excluding AEs, ADRs, and cutoff values for AST, ALT, sCr, and CK, findings were combined for pemafibrate subgroups receiving doses of 0.1 mg/day, 0.2 mg/day, and 0.4 mg/day.\nFor each lipid parameter, gel filtration HPLC was performed at Skylight Biotech, Inc. Other measurements were performed at LSI Medience Corporation. The FAS was used for analyzing efficacy parameters of effects on lipids, fibrinogen, and FGF21. The safety analysis set was used for safety parameters and included all patients who received at least one dose of the study drug. For lipid parameters, fibrinogen, and FGF21, LS means (95% confidence interval) were calculated at Week 12 (LOCF) using analysis of covariance (ANCOVA) with baseline values as the co-variable within each category. For safety parameters, LS means (95% confidence interval) were calculated at Week 12 using ANCOVA with baseline values as the co-variable within each category. SAS version 9.2 was used for analyses."}, "[5]": {"conditions": "Baseline eGFR < 60 mL/min/1.73 m^2, 0.1-0.4 mg/day"}, "[6]": {"conditions": "Baseline eGFR ≥ 60 mL/min/1.73 m^2, 0.1-0.4 mg/day"}}}
{"smiles": "CC[C@@H](Oc1cccc(CN(CCCOc2ccc(OC)cc2)c2nc3ccccc3o2)c1)C(=O)O", "note": "[Pemafibrate, (2R)-2-[3-({1,3-benzoxazol-2-yl[3-(4-methoxyphenoxy)propyl]amino}methyl)phenoxy]butanoic acid]", "values": [{"measurement": "urinary excretion", "setting": "[1]", "result": "low"}, {"measurement": "differences in pharmacokinetics (PK) with renal impairment", "setting": "[2]", "result": "no meaningful differences"}, {"measurement": "incidence of adverse drug reactions", "setting": "[3]; 0.2 (0.4) mg/day, 52 weeks", "result": 31.7, "unit": "%"}, {"measurement": "incidence of adverse events", "setting": "[3]; 0.2 (0.4) mg/day, 52 weeks", "result": 82.0, "unit": "%"}, {"measurement": "association of adverse event and adverse drug reaction incidences with baseline eGFR", "setting": "[3]; in vivo", "result": "not associated"}, {"measurement": "Small HDL-C Week 12 (LOCF)", "setting": "[4]; [5]", "result": 0.484, "unit": "mmol/L"}, {"measurement": "Small LDL-C Week 12 (LOCF)", "setting": "[4]; [5]", "result": 0.577, "unit": "mmol/L"}, {"measurement": "Very small HDL-C Week 12 (LOCF)", "setting": "[4]; [5]", "result": 0.208, "unit": "mmol/L"}, {"measurement": "Very small LDL-C Week 12 (LOCF)", "setting": "[4]; [5]", "result": 0.229, "unit": "mmol/L"}, {"measurement": "Small HDL-C % Change from baseline to week 12", "setting": "[4]; [5]", "result": 34.9, "unit": "%"}, {"measurement": "Small LDL-C % Change from baseline to week 12", "setting": "[4]; [5]", "result": "−7.8", "unit": "%"}, {"measurement": "Very small HDL-C % Change from baseline to week 12", "setting": "[4]; [5]", "result": 25.2, "unit": "%"}, {"measurement": "Very small LDL-C % Change from baseline to week 12", "setting": "[4]; [5]", "result": "−14.6", "unit": "%"}, {"measurement": "Small HDL-C Week 12 (LOCF)", "setting": "[4]; [6]", "result": 0.470, "unit": "mmol/L"}, {"measurement": "Small LDL-C Week 12 (LOCF)", "setting": "[4]; [6]", "result": 0.576, "unit": "mmol/L"}, {"measurement": "Very small HDL-C Week 12 (LOCF)", "setting": "[4]; [6]", "result": 0.204, "unit": "mmol/L"}, {"measurement": "Very small LDL-C Week 12 (LOCF)", "setting": "[4]; [6]", "result": 0.231, "unit": "mmol/L"}, {"measurement": "Small HDL-C % Change from baseline to week 12", "setting": "[4]; [6]", "result": 26.7, "unit": "%"}, {"measurement": "Small LDL-C % Change from baseline to week 12", "setting": "[4]; [6]", "result": "−6.0", "unit": "%"}, {"measurement": "Very small HDL-C % Change from baseline to week 12", "setting": "[4]; [6]", "result": 19.4, "unit": "%"}, {"measurement": "Very small LDL-C % Change from baseline to week 12", "setting": "[4]; [6]", "result": "−12.5", "unit": "%"}, {"measurement": "small and very small LDL-C and HDL particle sizes (observation)", "setting": "[4]; lower eGFR group", "result": "improvements"}]}
